Results published in ChEMBL document CHEMBL1141332, “Cytotoxic metabolites from an Indonesian sponge Lendenfeldia sp” (J Nat Prod, 2007).

Legend:
Assay type in all cases: functional
HCC 2998 = test: Cytotoxicity against human HCC2998 cells
MCF7 = test: Cytotoxicity against human MCF7 cells
K562 = test: Cytotoxicity against human K562 cells
TK-10 = test: Cytotoxicity against human TK10 cells
KM12 = test: Cytotoxicity against human KM12 cells
UACC-257 = test: Cytotoxicity against human UACC257 cells
NCI/ADR-RES = test: Cytotoxicity against human NCI/ADR-RES cells
IGROV-1 = test: Cytotoxicity against human IGROV1 cells
UO-31 = test: Cytotoxicity against human UO31 cells
U-251 = test: Cytotoxicity against human U251cells
RPMI-8226 = test: Cytotoxicity against human RPMI8226 cells
MDA-MB-435 = test: Cytotoxicity against human MDA-MB-435 cells
HT-29 = test: Cytotoxicity against human HT29 cells
Malme-3M = test: Cytotoxicity against human MALME-3M cells
HCT-15 = test: Cytotoxicity against human HCT15 cells
BT-549 = test: Cytotoxicity against human BT549 cells
786-0 = test: Cytotoxicity against human 786-0 cells
SN12C = test: Cytotoxicity against human SN12C cells
NCI-H226 = test: Cytotoxicity against human NCI-H226 cells
HOP-92 = test: Cytotoxicity against human HOP92 cells
SR = test: Cytotoxicity against human SR cells
HCT-116 = test: Cytotoxicity against human HCT116 cells
RXF 393 = test: Cytotoxicity against human RXF393 cells
SNB-75 = test: Cytotoxicity against human SNB75 cells
COLO 205 = test: Cytotoxicity against human COLO205 cells
OVCAR-5 = test: Cytotoxicity against human OVCAR5 cells
NCI-H322M = test: Cytotoxicity against human NCI-H322M cells
OVCAR-8 = test: Cytotoxicity against human OVCAR8 cells
SF-295 = test: Cytotoxicity against human SF295 cells
M14 = test: Cytotoxicity against human M14 cells
A549 = test: Cytotoxicity against human A549 cells
SK-MEL-28 = test: Cytotoxicity against human SK-MEL-28 cells
MOLT-4 = test: Cytotoxicity against human MOLT4 cells
SF-539 = test: Cytotoxicity against human SF539 cells
T47D = test: Cytotoxicity against human T47D cells
OVCAR-3 = test: Cytotoxicity against human OVCAR-3 cells
UACC-62 = test: Cytotoxicity against human UACC62 cells
PC-3 = test: Cytotoxicity against human PC3 cells
NCI-H23 = test: Cytotoxicity against human NCI-H23 cells
SF-268 = test: Cytotoxicity against human SF268 cells
LOX IMVI = test: Cytotoxicity against human LOX IMVI cells
ACHN = test: Cytotoxicity against human ACHN cells
SK-MEL-2 = test: Cytotoxicity against human SK-MEL-2 cells
NCI-H460 = test: Cytotoxicity against human NCI-H460 cells
OVCAR-4 = test: Cytotoxicity against human OVCAR4 cells
SNB-19 = test: Cytotoxicity against human SNB19 cells; conditions: read-out: Log LC50 (the source's name) (converted)
[1] = read-out: Log LC50 (the source's name) (converted)

## CC(=O)C1=CC[C@H]2[C@]3(C)CC[C@H]4C(C)(C)CCC[C@]4(C(=O)O)[C@H]3CC(=O)[C@]2(C)[C@H]1C=O
HCC 2998
  GI50: 1.62 µM
HCC 2998; [1]
  CC50: 5.62 µM
HCC 2998; read-out: Log TGI (converted)
  TGI: 3.02 µM
MCF7
  GI50: 0.813 µM
  LC50: 51.3 µM
MCF7; read-out: Log TGI (converted)
  TGI: 9.33 µM
K562
  GI50: 2.04 µM
K562; [1]
  CC50: 20.9 µM
K562; read-out: Log TGI (converted)
  TGI: 5.01 µM
TK-10
  GI50: 1.17 µM
  LC50: 6.61 µM
TK-10; read-out: Log TGI (converted)
  TGI: 2.82 µM
KM12
  GI50: 1.41 µM
KM12; [1]
  CC50: 21.4 µM
KM12; read-out: Log TGI (converted)
  TGI: 3.89 µM
UACC-257
  GI50: 2.4 µM
UACC-257; [1]
  CC50: 42.7 µM
UACC-257; read-out: Log TGI (converted)
  TGI: 6.46 µM
NCI/ADR-RES
  GI50: 1.91 µM
  LC50: 8.91 µM
NCI/ADR-RES; read-out: Log TGI (converted)
  TGI: 4.07 µM
IGROV-1
  GI50: 2.57 µM
IGROV-1; [1]
  CC50: 50.1 µM
IGROV-1; read-out: Log TGI (converted)
  TGI: 8.13 µM
UO-31
  GI50: 1.2 µM
  LC50: 5.62 µM
UO-31; read-out: Log TGI (converted)
  TGI: 2.57 µM
U-251
  GI50: 1.23 µM
U-251; [1]
  CC50: 5.01 µM
U-251; read-out: Log TGI (converted)
  TGI: 2.45 µM
RPMI-8226
  GI50: 0.603 µM
RPMI-8226; [1]
  CC50: 12.9 µM
RPMI-8226; read-out: Log TGI (converted)
  TGI: 2.34 µM
MDA-MB-435
  GI50: 1.55 µM
  LC50: 6.17 µM
MDA-MB-435; read-out: Log TGI (converted)
  TGI: 3.09 µM
HT-29
  GI50: 0.257 µM
HT-29; [1]
  CC50: > 100 µM
HT-29; read-out: Log TGI (converted)
  TGI: 1.62 µM
Malme-3M
  GI50: 1.62 µM
Malme-3M; [1]
  CC50: 6.76 µM
Malme-3M; read-out: Log TGI (converted)
  TGI: 3.31 µM
HCT-15
  GI50: 0.759 µM
HCT-15; [1]
  CC50: 5.25 µM
HCT-15; read-out: Log TGI (converted)
  TGI: 2.14 µM
BT-549
  GI50: 1.26 µM
  LC50: 6.17 µM
BT-549; read-out: Log TGI (converted)
  TGI: 2.75 µM
786-0
  GI50: 0.603 µM
786-0; [1]
  CC50: 4.37 µM
786-0; read-out: Log TGI (converted)
  TGI: 1.91 µM
SN12C
  GI50: 1.55 µM
  LC50: 6.46 µM
SN12C; read-out: Log TGI (converted)
  TGI: 3.16 µM
NCI-H226
  GI50: 1.82 µM
NCI-H226; read-out: Log TGI (converted)
  TGI: 3.8 µM
HOP-92
  GI50: 1.91 µM
HOP-92; [1]
  CC50: 7.41 µM
HOP-92; read-out: Log TGI (converted)
  TGI: 3.72 µM
SR
  GI50: 0.457 µM
SR; [1]
  CC50: 6.76 µM
SR; read-out: Log TGI (converted)
  TGI: 1.86 µM
HCT-116
  GI50: 0.468 µM
HCT-116; [1]
  CC50: 4.07 µM
HCT-116; read-out: Log TGI (converted)
  TGI: 1.62 µM
RXF 393
  GI50: 1.17 µM
RXF 393; read-out: Log TGI (converted)
  TGI: 2.57 µM
SNB-75
  GI50: 1.82 µM
SNB-75; [1]
  CC50: 5.89 µM
SNB-75; read-out: Log TGI (converted)
  TGI: 3.31 µM
COLO 205
  GI50: 0.794 µM
COLO 205; [1]
  CC50: 7.41 µM
COLO 205; read-out: Log TGI (converted)
  TGI: 2.57 µM
OVCAR-5
  GI50: 1.86 µM
OVCAR-5; [1]
  CC50: 8.91 µM
OVCAR-5; read-out: Log TGI (converted)
  TGI: 4.07 µM
NCI-H322M
  GI50: 3.55 µM
NCI-H322M; [1]
  CC50: 42.7 µM
NCI-H322M; read-out: Log TGI (converted)
  TGI: 10.5 µM
OVCAR-8
  GI50: 1.32 µM
OVCAR-8; [1]
  CC50: > 100 µM
OVCAR-8; read-out: Log TGI (converted)
  TGI: 3.63 µM
SF-295
  GI50: 1.45 µM
SF-295; [1]
  CC50: 6.92 µM
SF-295; read-out: Log TGI (converted)
  TGI: 3.16 µM
M14
  GI50: 1.82 µM
M14; [1]
  CC50: 6.92 µM
M14; read-out: Log TGI (converted)
  TGI: 3.55 µM
A549
  GI50: 2.57 µM
A549; [1]
  CC50: 74.1 µM
A549; read-out: Log TGI (converted)
  TGI: 12.6 µM
SK-MEL-28
  GI50: 0.355 µM
SK-MEL-28; [1]
  CC50: 4.47 µM
SK-MEL-28; read-out: Log TGI (converted)
  TGI: 1.35 µM
MOLT-4
  GI50: 0.257 µM
MOLT-4; [1]
  CC50: 4.47 µM
MOLT-4; read-out: Log TGI (converted)
  TGI: 0.912 µM
SF-539
  GI50: 0.741 µM
SF-539; [1]
  CC50: 4.57 µM
SF-539; read-out: Log TGI (converted)
  TGI: 2.04 µM
T47D
  GI50: 1.17 µM
  LC50: 85.1 µM
T47D; read-out: Log TGI (converted)
  TGI: 6.61 µM
OVCAR-3
  GI50: 0.295 µM
OVCAR-3; [1]
  CC50: 3.47 µM
OVCAR-3; read-out: Log TGI (converted)
  TGI: 1.02 µM
UACC-62
  GI50: 1.74 µM
UACC-62; [1]
  CC50: 5.89 µM
UACC-62; read-out: Log TGI (converted)
  TGI: 3.24 µM
PC-3
  GI50: 0.977 µM
  LC50: 18.2 µM
PC-3; read-out: Log TGI (converted)
  TGI: 3.63 µM
NCI-H23
  GI50: 2 µM
NCI-H23; [1]
  CC50: 9.12 µM
NCI-H23; read-out: Log TGI (converted)
  TGI: 4.27 µM
SF-268
  GI50: 1.2 µM
SF-268; [1]
  CC50: 7.24 µM
SF-268; read-out: Log TGI (converted)
  TGI: 2.95 µM
LOX IMVI
  GI50: 1.45 µM
LOX IMVI; [1]
  CC50: 5.62 µM
LOX IMVI; read-out: Log TGI (converted)
  TGI: 2.82 µM
ACHN
  GI50: 0.479 µM
  LC50: 4.17 µM
ACHN; read-out: Log TGI (converted)
  TGI: 1.7 µM
SK-MEL-2
  GI50: 2.4 µM
SK-MEL-2; [1]
  CC50: 37.2 µM
SK-MEL-2; read-out: Log TGI (converted)
  TGI: 5.25 µM
NCI-H460
  GI50: 1.66 µM
NCI-H460; [1]
  CC50: 8.71 µM
NCI-H460; read-out: Log TGI (converted)
  TGI: 3.8 µM
OVCAR-4
  GI50: 0.813 µM
OVCAR-4; [1]
  CC50: 56.2 µM
OVCAR-4; read-out: Log TGI (converted)
  TGI: 4.68 µM
SNB-19
  CC50: 3.02 µM
